Source: patent US20240382564A1, “Methods and Compositions for Treating Muscular Dystrophy and Memory Impairment” (Allysta Pharmaceuticals, Inc., priority 2023, published 2024)
Where no end group is shown, it is not given here. [ ]: non-standard residue; d: D form. Nva = CCC[C@H](N)C(=O)O

Tests used:
D2.mdx mice [1] = assay: Fibre-type specific minimal Feret's diameter (muscle atrophy), myosin heavy chain immunofluorescence; type: in vivo, mouse
Experimental: (§1) D2.mdx mice were treated with ALY688 at two different dosages; high dose (HD; 15 mg/kg body weight/day) or low dose (LD; 3 mg/kg body weight/day) dissolved in saline. A separate group of mice were treated with saline alone (VEH, vehicle). Treatment was provided via subscapular subcutaneous injections from 7 days of age to 28-30 days. […] At 28-30 days of age, mice were anaesthetized with isoflurane vaporized in medical air (21% oxygen) at a 2 L/min flow rate. Due to tissue limitations in limb muscle, certain measures were performed separately in tibialis anterior and quadriceps across several phases of breeding. Following the treatment protocol, in situ quadriceps force assessments were then performed in one limb followed by removal of the quadriceps from the other limb for mitochondrial assessments, diaphragm for in vitro force assessments and finally other tissues for further processing as described below. Muscle and visceral organs weights were normalized to tibia length. Tissue collected from the first phase were utilized in force, histological, mitochondrial measures (respiration, mH2O2 and calcium retention capacity) and western analyses (diaphragm and quadriceps only). A second phase was then collected and utilized for cytokine profiling, qPCR analyses and additional westerns (TA only). Serum was collected from both phase 1 and 2 and utilized for serum CK analysis. All animals were utilized in in vivo functional assays (grip strength, cage hang time and voluntary wheel running).
Samples collected were cut into 8 µm thick serial cross sections with a cryostat (Thermo Fisher Scientific; Kalamazoo, MI, United States;) maintained at −20° C. on Fisherbrand Superfrost Plus slides (Thermo Fisher Scientific). Hematoxylin and eosin (H&E) and Masson's trichrome staining was used to assess muscle health and fibrosis. Centralized nuclei, a marker of regenerating fibres, was analyzed by selecting five evenly spaced images throughout the muscle and averaging the result. Areas of damage (fibres with fragmented sarcoplasm and immune cell infiltration) were expressed as a percentage of the entire muscle section. Images were taken using EVOS M7000 imager (Thermo Fisher Scientific) using 20× magnification and analyzed using ImageJ (http://imagej.nih.gov/ij/). To determine fibrotic area, skeletal muscle sections were stained with Masson's Trichrome (fibrotic regions stain blue for collagen) and expressed as a percentage of a region of interest, which included the entire muscle section with any artifacts removed. Sections were imaged Nikon 90i-eclipse microscope (Nikon Inc., Melville, NY) and analysed with the NIS Elements AR software (v4.6, Nikon). […] These images were then analyzed with ImageJ for minimal Feret's diameter as an index of muscle atrophy.

D2.mdx mice [2] = assay: Western blotting of electron transport chain complex subunits in muscle; type: in vivo, mouse
Experimental: as §1
Frozen sections of quadriceps and diaphragm from each muscle (approximately 10-30 mg in size) were homogenized using a plastic microcentrifuge tube with tapered Teflon pestle in ice-cold lysis buffer containing (in mM) (20 Tris/HCl, 150 NaCl, 1 EDTA, 1 EGTA, 1% Triton X-100, 2.5 Na4O7P2, 1 Na3VO4, pH 7.0) supplemented with protease (Sigma) and phosphatase inhibitors (Roche). A 12% gel was used to separate electron transport chain proteins and all other proteins were separated on a 10% gel. Following, all gels were transferred onto 0.2μm low fluorescence PVDF membrane (Bio-Rad, Mississauga, Canada) and blocked with Li-COR Intercept Blocking Buffer (LI-COR, Lincoln NE, USA) for 1 hour. Membranes were then incubated with specific primary antibodies (listed below) overnight at 4° C. A commercially available monoclonal rodent OXPHOS Cocktail (ab110413; Abcam, Cambridge, UK, 1:250 dilution) including V-ATP5A (55 kDa), III-UQCRC2 (48 kDa), IV-MTCO1 (40 kDa), II-SDHB (30 kDa), and I-NDUFB8 (20 kDa) were used to detect electron transport chain proteins. […] Prior to detection, membranes were washed in TBS-T three times for 5 minutes and then imaged using infrared imaging (LI-COR CLx; LI-COR, Lincoln, NE, USA) and quantified by densitometry (ImageJ, http://imagej.nih.gov/ij/). […]

For [dN]IP[Nva]LY[dS]FA[dS]-NH2 [ALY688], the “atrophy in MHC I fibers (minimal feret diameter)” value (D2.mdx mice [1]; diaphragm, HD 15 mg/kg/day) was “completely prevented atrophy”, the “minimal feret diameter, IIA fibers” value (D2.mdx mice [1]; diaphragm, HD, WT 24, VEH 20) was 22 μm and the “minimal feret diameter, IIB fibers” value (D2.mdx mice [1]; diaphragm, HD, WT 26, VEH 23) was 24 μm. The “minimal feret diameter in any fiber type” value (D2.mdx mice [1]; tibialis anterior, between the groups) was “no differences”, the “complex IV content” value (D2.mdx mice [2]; diaphragm, LD) was −27.0 % vs WT and the “total sum of electron transport chain complexes” value (D2.mdx mice [2]; diaphragm, disease state groups) was −13.8 to −19.3 % vs WT. For the same substance, the “specific subunits of complex III and V” value (D2.mdx mice [2]; quadriceps and diaphragm, disease state groups (VEH, LD, HD)) was −14.7 to −31.5 % vs WT and the “total sum of electron transport chain complexes” value (D2.mdx mice [2]; quadriceps, HD) was −29.1 % vs WT.
